Experiment [1] addresses Muscarinic acetylcholine receptor. Put plainly: In vitro ability to displace 3H-cis-methyltrimethylammoniummethyl-1,3-dioxolane [3H]CD) from rat cortical Muscarinic acetylcholine receptor in competition assay. Format: protein assay.
Experiment [2] shares this target. Put plainly: In vitro ability to displace [3H]quinuclidinyl benzilate [3H]QNB) from rat cortical Muscarinic acetylcholine receptor in competition assay. Format: protein assay.
Experiment [3] can be described thus: Compound was evaluated for ratio of 3H-QNB, [3H]CD.

Data on eight compounds can be found in ChEMBL document CHEMBL1151004, “The synthesis and structure activity relationships of enantiomerically pure hydroxylated oxotremorine derivatives” (Bioorg Med Chem Lett, 1992).

What is called Ki is a measure of affinity in units of concentration, obtained from inhibition or displacement. Consider `O=C1C[C@H](O)CN1CC#CCN1CCCC1`, for which the Ki in experiment [1] was determined as 8560 nM; in experiment [2] it was 7500 nM. Moreover, the Ratio in experiment [3] worked out at 0.9.
Taken in the same sequence, the figures for `O=C1[C@H](O)CCN1CC#CCN1CCCC1` were 120 nM, 2100 nM and 17.
Turning to `O=C1C[C@@H](O)CN1CC#CCN1CCCC1`, the Ki in experiment [1] was determined as 78 nM; in experiment [2] it was 3000 nM. Besides, the Ratio in experiment [3] worked out at 38.
On to `O=C1CCCN1CC#CCN1CC[C@@H](O)C1`, for which the results for the Ki in experiment [1] and in experiment [2] were 2380 nM and 1800 nM, respectively. The Ratio in experiment [3] amounted to 0.7.
`O=C1CCCN1CC#CCN1CC[C@H](O)C1`: the Ki amounted to 610 nM in experiment [1] and 1200 nM in experiment [2]. Further, the Ratio in experiment [3] came out at 2.
On to `O=C1CCCN1CC#CCN1CCCC1`, for which the Ratio in experiment [3] came to 120.
On the same count and under the same terms, next, `C[N+](C)(C)CCOC(N)=O`: 2000.
On to `O=C1[C@@H](O)CCN1CC#CCN1CCCC1`, for which the Ki in experiment [1] came to 9 nM; in experiment [2], 1400 nM. For the same compound, the Ratio in experiment [3] was 150.
